What was measured:
[1] = system: U937 human histiocytic leukemia cell line; test: Inhibition of TSQ induced necroptosis in U937 cells (CellTitre-Glo); conditions: Homo sapiens, U-937, TSQ cocktail (TNF, Smac mimetic, Q-VD-OPh), 48 hours, read-out: Inhibition of TSQ-induced necroptosis (IC50 cell-based assay)
Summary of the method: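 U937 cells (20000/well) treated with compound (10-point, 1:3 from 36 μM, 0.3% DMSO) plus TSQ cocktail (hTNF-Fc 100 ng/ml, Smac mimetic 500 nM, Q-VD-OPh 10 μM), 48 h at 37 °C. Viability by CellTiter-Glo luminescence; IC50 from 4-parameter logistic fit. Counter screen: same cells without TSQ.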

human RIPK1 = human RIPK1 (Homo sapiens (Human), UniProt Q13546); test: KINOMEscan binding assay, human RIPK1; conditions: equilibrium dissociation constant
Summary of the method: (§1)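 Competition binding format with qPCR detection. Kinases, either phage-fused from E. coli lysates or HEK-293-derived with a DNA tag, bound ligand-coated beads in the presence of compound (11 points, 3-fold steps, 1% DMSO, top usually 30,000 nM). Kd from nonlinear Hill fitting with slope −1.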

U937 cells = test: Counter screen: U937 cell viability without TSQ cocktail (off-target effect); design: species or system human; conditions: Homo sapiens, U-937, compound without TSQ cocktail, read-out: Off-target effect (IC50 cell-based assay)
Summary of the method: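 U937 cells (20,000/well) exposed to compound (10-point 1:3 titration from 36 μM, 0.3% DMSO) without TSQ cocktail for 48 h at 37 °C/5% CO2. Viability read as ATP by CellTiter-Glo luminescence; IC50 from 4-parameter logistic fit.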

human RIPK3 = human RIPK3 (Homo sapiens (Human), UniProt Q9Y572); test: KINOMEscan binding assay, human RIPK3; conditions: equilibrium dissociation constant
Summary of the method: as §1

human MLKL (full length) = human MLKL (full length) (Homo sapiens (Human), UniProt Q8NB16); test: KINOMEscan binding assay, human MLKL (full length); conditions: equilibrium dissociation constant
Summary of the method: as §1

Sequence of human RIPK3 (Q9Y572 whole entry): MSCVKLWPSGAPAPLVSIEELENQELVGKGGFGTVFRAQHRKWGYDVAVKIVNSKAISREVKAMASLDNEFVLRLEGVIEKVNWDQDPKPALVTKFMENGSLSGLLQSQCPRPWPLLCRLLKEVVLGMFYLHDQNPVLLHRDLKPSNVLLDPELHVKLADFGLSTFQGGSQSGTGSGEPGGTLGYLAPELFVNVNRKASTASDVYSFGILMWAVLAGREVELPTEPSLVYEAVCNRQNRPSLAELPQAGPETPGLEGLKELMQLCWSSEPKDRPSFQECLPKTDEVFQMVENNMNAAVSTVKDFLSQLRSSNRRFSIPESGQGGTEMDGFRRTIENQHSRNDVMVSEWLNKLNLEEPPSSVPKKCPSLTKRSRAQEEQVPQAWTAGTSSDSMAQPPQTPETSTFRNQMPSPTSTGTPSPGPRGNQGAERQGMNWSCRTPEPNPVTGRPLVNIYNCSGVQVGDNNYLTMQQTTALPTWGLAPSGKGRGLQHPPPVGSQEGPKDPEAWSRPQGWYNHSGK
Sequence of human RIPK1 (Q13546 whole entry, the tested form may be a part): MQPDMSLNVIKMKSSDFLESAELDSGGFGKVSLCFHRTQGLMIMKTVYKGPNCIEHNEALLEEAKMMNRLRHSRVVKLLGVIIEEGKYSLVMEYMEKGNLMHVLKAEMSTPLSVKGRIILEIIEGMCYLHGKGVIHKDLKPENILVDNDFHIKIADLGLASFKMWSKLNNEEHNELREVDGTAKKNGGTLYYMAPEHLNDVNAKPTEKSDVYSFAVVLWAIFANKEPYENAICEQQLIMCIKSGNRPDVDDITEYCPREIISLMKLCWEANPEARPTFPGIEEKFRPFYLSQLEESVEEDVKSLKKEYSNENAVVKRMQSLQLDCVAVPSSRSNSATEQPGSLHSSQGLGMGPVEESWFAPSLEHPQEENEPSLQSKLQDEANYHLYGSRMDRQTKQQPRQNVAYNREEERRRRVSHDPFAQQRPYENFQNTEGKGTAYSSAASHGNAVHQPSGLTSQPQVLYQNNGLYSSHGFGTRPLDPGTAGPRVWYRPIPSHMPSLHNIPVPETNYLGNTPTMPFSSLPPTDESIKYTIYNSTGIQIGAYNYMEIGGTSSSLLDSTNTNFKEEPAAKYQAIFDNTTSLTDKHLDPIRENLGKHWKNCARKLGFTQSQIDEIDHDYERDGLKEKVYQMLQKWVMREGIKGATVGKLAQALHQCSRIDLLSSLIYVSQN
Sequence of human MLKL (full length) (Q8NB16 whole entry): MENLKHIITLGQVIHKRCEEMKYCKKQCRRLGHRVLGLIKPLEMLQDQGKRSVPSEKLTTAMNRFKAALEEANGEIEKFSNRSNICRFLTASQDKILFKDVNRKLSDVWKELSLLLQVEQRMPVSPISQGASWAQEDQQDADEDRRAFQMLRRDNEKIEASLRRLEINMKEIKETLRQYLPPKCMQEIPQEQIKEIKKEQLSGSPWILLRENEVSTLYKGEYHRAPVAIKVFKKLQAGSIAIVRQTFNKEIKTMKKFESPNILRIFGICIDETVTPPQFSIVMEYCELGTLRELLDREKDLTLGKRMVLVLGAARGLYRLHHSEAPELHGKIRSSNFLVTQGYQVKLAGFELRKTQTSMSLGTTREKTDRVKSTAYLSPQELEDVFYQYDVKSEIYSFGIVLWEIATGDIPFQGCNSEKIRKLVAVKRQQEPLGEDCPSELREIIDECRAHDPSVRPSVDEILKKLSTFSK

SMILES | IC50 [1] [µM] | Kd (human RIPK1) [µM] | IC50 (U937 cells) [µM] | Kd (human RIPK3) [µM] | Kd (human MLKL (full length)) [µM]
C[C@H](Oc1cc(-c2nn(C)c3c(-c4cnn(CCC(F)(F)F)c4)cnc(N)c23)ccc1NS(=O)(=O)C(F)F)c1ccc(F)cc1 [Compound 131, (S)-N-(4-(4-amino-1-methyl-7-(1-(3,3,3-trifluoropropyl)-1H-pyrazol-4-yl)-1H-pyrazolo[4,3-c]pyridin-3-yl)-2-(1-(4-fluorophenyl)ethoxy)phenyl)-1,1-difluoromethanesulfonamide] | 0.01 to 1 | > 10 | > 10 | > 10 | 0.001 to 0.1
CC(C)N(C)C(=O)C(C)n1cc(-c2cnc(N)c3c(-c4ccc(NS(=O)(=O)C(F)F)c(O[C@@H](C)c5ccc(F)cc5)c4)nn(C)c23)cn1 (stereo partly drawn) [Compound 81, 2-(4-(4-amino-3-(4-((difluoromethyl)sulfonamido)-3-((S)-1-(4-fluorophenyl)ethoxy)phenyl)-1-methyl-1H-pyrazolo[4,3-c]pyridin-7-yl)-1H-pyrazol-1-yl)-N-isopropyl-N-methylpropanamide] | < 0.01 | > 10 | > 10 | > 10 | < 0.001
COCCn1cc(-c2cnc(N)c3c(-c4ccc(NS(=O)(=O)C(F)F)c(O[C@@H](C)c5ccc(F)cc5)c4)nn(C)c23)cn1 [Compound 29, (S)-N-(4-(4-amino-7-(1-(2-methoxyethyl)-1H-pyrazol-4-yl)-1-methyl-1H-pyrazolo[4,3-c]pyridin-3-yl)-2-(1-(4-fluorophenyl)ethoxy)phenyl)-1,1-difluoromethanesulfonamide] | < 0.01 | > 10 | > 10 | > 10 | < 0.001
C[C@H](Oc1cc(-c2nn(C)c3c(-c4cnn(C5CCN(C)C(C)(C)C5)c4)cnc(N)c23)ccc1NS(=O)(=O)C(F)F)c1ccc(F)cc1 (single isomer, unassigned) [Compound 113] | < 0.01 | > 10 | > 10 | > 10 | < 0.001
C[C@H](Oc1cc(-c2nn(C)c3c(-c4cnn(C5CCOCC5)c4)cnc(N)c23)ccc1NS(=O)(=O)C(F)F)c1cccc(Cl)c1 [Compound 122, (S)-N-(4-(4-amino-1-methyl-7-(1-(tetrahydro-2H-pyran-4-yl)-1H-pyrazol-4-yl)-1H-pyrazolo[4,3-c]pyridin-3-yl)-2-(1-(3-chlorophenyl)ethoxy)phenyl)-1,1-difluoromethanesulfonamide] | 0.01 to 1 | > 10 | > 10 | > 10 | < 0.001
C[C@H](Oc1cc(-c2nn(C)c3c(-c4cnn(C(C)(C)CO)c4)cnc(N)c23)ccc1NS(=O)(=O)C(F)F)c1ccc(F)cc1 [Compound 97, (S)-N-(4-(4-amino-7-(1-(1-hydroxy-2-methylpropan-2-yl)-1H-pyrazol-4-yl)-1-methyl-1H-pyrazolo[4,3-c]pyridin-3-yl)-2-(1-(4-fluorophenyl)ethoxy)phenyl)-1,1-difluoromethanesulfonamide] | 0.01 to 1 | > 10 | > 10 | > 10 | < 0.001
C[C@H](Oc1cc(-c2nn(C)c3c(-c4cnn(C5CC6(C5)CN(C)C6)c4)cnc(N)c23)ccc1NS(=O)(=O)C(F)F)c1ccc(F)cc1 [Compound 99, (S)-N-(4-(4-amino-1-methyl-7-(1-(2-methyl-2-azaspiro[3.3]heptan-6-yl)-1H-pyrazol-4-yl)-1H-pyrazolo[4,3-c]pyridin-3-yl)-2-(1-(4-fluorophenyl)ethoxy)phenyl)-1,1-difluoromethanesulfonamide] | 0.01 to 1 | > 10 | > 10 | > 10 | < 0.001
C[C@H](Oc1cc(-c2nn(C)c3c(-c4cnn(C5C[C@@H]6CN(C)C[C@@H]6C5)c4)cnc(N)c23)ccc1NS(=O)(=O)C(F)F)c1ccc(F)cc1 (stereo partly drawn) [Compound 164, N-(4-(4-amino-1-methyl-7-(1-((3aR,6aS)-2-methyloctahydrocyclopenta[c]pyrrol-5-yl)-1H-pyrazol-4-yl)-1H-pyrazolo[4,3-c]pyridin-3-yl)-2-((S)-1-(4-fluorophenyl)ethoxy)phenyl)-1,1-difluoromethanesulfonamide] | < 0.01 | > 10 | > 10 | > 10 | < 0.001
Cn1nc(-c2ccc(NS(=O)(=O)C(F)F)c(OCc3ccc(F)cc3)c2)c2c(N)ncc(-c3cnn(C4CCOCC4)c3)c21 [Compound 13, N-(4-(4-amino-1-methyl-7-(1-(tetrahydro-2H-pyran-4-yl)-1H-pyrazol-4-yl)-1H-pyrazolo[4,3-c]pyridin-3-yl)-2-((4-fluorobenzyl)oxy)phenyl)-1,1-difluoromethanesulfonamide] | 0.01 to 1 | > 10 | > 10 | > 10 | < 0.001
C[C@H](Oc1cc(-c2nn(C)c3c(-c4cnn(C5CCN(C)C(C(F)(F)F)C5)c4)cnc(N)c23)ccc1NS(=O)(=O)C(F)F)c1ccc(F)cc1 (stereo partly drawn) [Compound 148, N-(4-(4-amino-1-methyl-7-(1-(1-methyl-2-(trifluoromethyl)piperidin-4-yl)-1H-pyrazol-4-yl)-1H-pyrazolo[4,3-c]pyridin-3-yl)-2-((S)-1-(4-fluorophenyl)ethoxy)phenyl)-1,1-difluoromethanesulfonamide] | < 0.01 | > 10 | > 10 | > 10 | 0.001 to 0.1
C[C@H](Oc1cc(-c2nn(C)c3c(-c4cnn(C5CC6CCC(C5)N6CC(F)(F)F)c4)cnc(N)c23)ccc1NS(=O)(=O)C(F)F)c1ccc(F)cc1 (stereo partly drawn) [Compound 153, N-(4-(4-amino-1-methyl-7-(1-(8-(2,2,2-trifluoroethyl)-8-azabicyclo[3.2.1]octan-3-yl)-1H-pyrazol-4-yl)-1H-pyrazolo[4,3-c]pyridin-3-yl)-2-((S)-1-(4-fluorophenyl)ethoxy)phenyl)-1,1-difluoromethanesulfonamide] | 0.01 to 1 | > 10 | > 10 | > 10 | 0.001 to 0.1
C[C@H](Oc1cc(-c2nn(C)c3c(-c4cnn(C5CCN(C)C(C)(C)C5)c4)cnc(N)c23)ccc1NS(=O)(=O)C(F)F)c1ccc(Cl)cc1 (stereo partly drawn) [Compound 159, N-(4-(4-amino-1-methyl-7-(1-(1,2,2-trimethylpiperidin-4-yl)-1H-pyrazol-4-yl)-1H-pyrazolo[4,3-c]pyridin-3-yl)-2-((S)-1-(4-chlorophenyl)ethoxy)phenyl)-1,1-difluoromethanesulfonamide] | < 0.01 | > 10 | > 10 | > 10 | < 0.001
C[C@H](Oc1cc(-c2nn(C)c3c(-c4cnn(C5CCN(CC(F)(F)F)C(C)(C)C5)c4)cnc(N)c23)ccc1NS(=O)(=O)C(F)F)c1ccc(F)cc1 (stereo partly drawn) [Compound 167, N-(4-(4-amino-7-(1-(2,2-dimethyl-1-(2,2,2-trifluoroethyl)piperidin-4-yl)-1H-pyrazol-4-yl)-1-methyl-1H-pyrazolo[4,3-c]pyridin-3-yl)-2-((S)-1-(4-fluorophenyl)ethoxy)phenyl)-1,1-difluoromethanesulfonamide] | 0.01 to 1 | > 10 | 1 to 10 | > 10 | 0.001 to 0.1
CC(n1cc(-c2cnc(N)c3c(-c4ccc(NS(=O)(=O)C(F)F)c(O[C@@H](C)c5ccc(F)cc5)c4)nn(C)c23)cn1)C(F)(F)F (stereo partly drawn) [Compound 142, N-(4-(4-amino-1-methyl-7-(1-(1,1,1-trifluoropropan-2-yl)-1H-pyrazol-4-yl)-1H-pyrazolo[4,3-c]pyridin-3-yl)-2-((S)-1-(4-fluorophenyl)ethoxy)phenyl)-1,1-difluoromethanesulfonamide] | 0.01 to 1 | > 10 | > 10 | > 10 | < 0.001
CC1CN(C)CC(C)C1n1cc(-c2cnc(N)c3c(-c4ccc(NS(=O)(=O)C(F)F)c(O[C@@H](C)c5ccc(F)cc5)c4)nn(C)c23)cn1 (stereo partly drawn) [Compound 172, N-(4-{4-amino-1-methyl-7-[1-(1,3,5-trimethylpiperidin-4-yl)-1H-pyrazol-4-yl]-1H-pyrazolo[4,3-c]pyridin-3-yl}-2-[(1S)-1-(4-fluorophenyl)ethoxy]phenyl)-1,1-difluoromethanesulfonamide] | 0.01 to 1 | > 10 | > 10 | > 10 | 0.001 to 0.1
C[C@H](Oc1cc(-c2nn(C)c3c(-c4cnn(C5(CC#N)COC5)c4)cnc(N)c23)ccc1NS(=O)(=O)C(F)F)c1ccc(F)cc1 [Compound 98, (S)-N-(4-(4-amino-7-(1-(3-(cyanomethyl)oxetan-3-yl)-1H-pyrazol-4-yl)-1-methyl-1H-pyrazolo[4,3-c]pyridin-3-yl)-2-(1-(4-fluorophenyl)ethoxy)phenyl)-1,1-difluoromethanesulfonamide] | 0.01 to 1 | > 10 | > 10 | > 10 | < 0.001

— patent publication US20250059188A1, “ARYLSULPHONAMIDE COMPOUNDS” (Anaxis Pharma Pty Ltd, priority 2021, published 2025)
